{"source": "paper PMC5218480", "about": "(PLoS ONE, 2017)", "system": "MV-4-11 cells", "experiment": "Gene expression microarray analysis (Affymetrix PrimeView) and GSEA", "type": "cell-based, human", "set-up": "RFU PODN (11730768_x_at) / Fold change /veh PODN (11730768_x_at) / RFU LINC00158 (11744669_a_at) / Fold change /veh LINC00158 (11744669_a_at) / RFU DUSP10 (11751237_a_at) / Fold change /veh DUSP10 (11751237_a_at) / RFU ID3 (11757404_x_at) / Fold change /veh ID3 (11757404_x_at) / RFU PLEKHG5 (11737974_s_at) / Fold change /veh PLEKHG5 (11737974_s_at) / RFU LRRC4B (11730491_at) / Fold change /veh LRRC4B (11730491_at) / RFU GIMAP4 (11747438_a_at) / Fold change /veh GIMAP4 (11747438_a_at) / RFU KRT8 (11758183_x_at) / Fold change /veh KRT8 (11758183_x_at) / RFU CNN1 (11734310_a_at) / Fold change /veh CNN1 (11734310_a_at) / RFU VPS37D (11726825_at) / Fold change /veh VPS37D (11726825_at) / RFU C10orf10 (11716522_x_at) / Fold change /veh C10orf10 (11716522_x_at) / RFU KIR2DL2 /// KIR2DL4 /// KIR2DL5A /// KIR2DL5B /// KIR2DS1 /// KIR2DS2 /// KIR2DS3 /// KIR2DS4 /// KIR3DL3 /// KIR3DL3 /// KIR3DS1 (11738374_at) / Fold change /veh KIR2DL2 /// KIR2DL4 /// KIR2DL5A /// KIR2DL5B /// KIR2DS1 /// KIR2DS2 /// KIR2DS3 /// KIR2DS4 /// KIR3DL3 /// KIR3DL3 /// KIR3DS1 (11738374_at) / RFU C1QL1 (11718748_at) / Fold change /veh C1QL1 (11718748_at) / RFU TMPRSS4 (11747572_a_at) / Fold change /veh TMPRSS4 (11747572_a_at) / RFU HAMP (11756126_x_at) / Fold change /veh HAMP (11756126_x_at) / RFU RNFT2 (11725882_a_at) / Fold change /veh RNFT2 (11725882_a_at) / RFU NR4A2 (11747474_a_at) / Fold change /veh NR4A2 (11747474_a_at) / RFU ABCC12 (11746883_a_at) / Fold change /veh ABCC12 (11746883_a_at) / RFU TMEM136 (11760407_x_at) / Fold change /veh TMEM136 (11760407_x_at) / RFU CLDN22 /// WWC2 (11732394_at) / Fold change /veh CLDN22 /// WWC2 (11732394_at) / RFU HLA-DPB1 (11760878_x_at) / Fold change /veh HLA-DPB1 (11760878_x_at) / RFU SPINT1 (11716480_a_at) / Fold change /veh SPINT1 (11716480_a_at) / RFU GAP43 (11754022_s_at) / Fold change /veh GAP43 (11754022_s_at) / RFU A4GNT (11735810_at) / Fold change /veh A4GNT (11735810_at) / RFU PRB3 (11715151_x_at) / Fold change /veh PRB3 (11715151_x_at) / RFU TUBB4B (11761932_at) / Fold change /veh TUBB4B (11761932_at) / RFU CAPN14 (11732068_a_at) / Fold change /veh CAPN14 (11732068_a_at) / RFU TMCC2 (11721928_a_at) / Fold change /veh TMCC2 (11721928_a_at) / RFU IRGQ (11745062_a_at) / Fold change /veh IRGQ (11745062_a_at) / RFU FAM174B (11720279_a_at) / Fold change /veh FAM174B (11720279_a_at) / RFU TMPRSS4 (11748680_a_at) / Fold change /veh TMPRSS4 (11748680_a_at) / RFU FAM212B (11763350_a_at) / Fold change /veh FAM212B (11763350_a_at) / RFU PLEKHG5 (11743358_a_at) / Fold change /veh PLEKHG5 (11743358_a_at) / RFU ZSCAN30 (11745921_a_at) / Fold change /veh ZSCAN30 (11745921_a_at) / RFU CMKLR1 (11741424_a_at) / Fold change /veh CMKLR1 (11741424_a_at) / RFU LOC101060620 /// MAPK8IP1 (11723275_at) / Fold change /veh LOC101060620 /// MAPK8IP1 (11723275_at) / RFU SPTSSB (11747773_x_at) / Fold change /veh SPTSSB (11747773_x_at) / RFU PRSS12 (11739890_at) / Fold change /veh PRSS12 (11739890_at) / RFU BIN1 (11741810_x_at) / Fold change /veh BIN1 (11741810_x_at) / RFU WNT11 (11732464_a_at) / Fold change /veh WNT11 (11732464_a_at) / RFU C10orf10 (11716521_a_at) / Fold change /veh C10orf10 (11716521_a_at) / RFU C5orf56 (11738089_at) / Fold change /veh C5orf56 (11738089_at) / RFU CYB561 (11721691_x_at) / Fold change /veh CYB561 (11721691_x_at) / RFU ANKRD19P (11752326_a_at) / Fold change /veh ANKRD19P (11752326_a_at) / RFU OR2T12 /// OR2T33 /// OR2T8 (11738714_s_at) / Fold change /veh OR2T12 /// OR2T33 /// OR2T8 (11738714_s_at) / RFU VCAN (11748164_a_at) / Fold change /veh VCAN (11748164_a_at) / RFU JSRP1 (11732532_at) / Fold change /veh JSRP1 (11732532_at) / RFU KRTAP10-11 (11738290_x_at) / Fold change /veh KRTAP10-11 (11738290_x_at) / RFU MYO3A (11730013_a_at) / Fold change /veh MYO3A (11730013_a_at) / RFU EBF3 (11725865_a_at) / Fold change /veh EBF3 (11725865_a_at) / RFU CAMK2N1 (11719241_x_at) / Fold change /veh CAMK2N1 (11719241_x_at) / RFU C5orf56 (11738088_a_at) / Fold change /veh C5orf56 (11738088_a_at) / RFU OLFML3 (11715873_a_at) / Fold change /veh OLFML3 (11715873_a_at) / RFU LOC100653217 /// NTM (11731650_a_at) / Fold change /veh LOC100653217 /// NTM (11731650_a_at) / RFU MAPK11 (11762145_a_at) / Fold change /veh MAPK11 (11762145_a_at) / RFU FIZ1 (11724087_x_at) / Fold change /veh FIZ1 (11724087_x_at) / RFU OASL (11726364_x_at) / Fold change /veh OASL (11726364_x_at) / RFU SOX15 (11748057_x_at) / Fold change /veh SOX15 (11748057_x_at) / RFU CD79A (11719716_a_at) / Fold change /veh CD79A (11719716_a_at) / RFU HIST1H1D (11736915_at) / Fold change /veh HIST1H1D (11736915_at) / RFU CASKIN2 (11723855_a_at) / Fold change /veh CASKIN2 (11723855_a_at) / RFU LOC730098 (11760151_x_at) / Fold change /veh LOC730098 (11760151_x_at) / RFU OR4N2 (11742367_at) / Fold change /veh OR4N2 (11742367_at) / RFU PRRT2 (11749266_a_at) / Fold change /veh PRRT2 (11749266_a_at) / RFU SNX32 (11753110_a_at) / Fold change /veh SNX32 (11753110_a_at) / RFU CDHR5 (11726645_a_at) / Fold change /veh CDHR5 (11726645_a_at) / RFU RCAN1 (11760418_a_at) / Fold change /veh RCAN1 (11760418_a_at) / RFU FAM167A (11723789_a_at) / Fold change /veh FAM167A (11723789_a_at) / RFU FAM26E (11764081_at) / Fold change /veh FAM26E (11764081_at) / RFU ISYNA1 (11749810_s_at) / Fold change /veh ISYNA1 (11749810_s_at) / RFU ACY1 (11761880_at) / Fold change /veh ACY1 (11761880_at) / RFU 11764098_at / Fold change /veh 11764098_at / RFU SAMD14 (11745864_x_at) / Fold change /veh SAMD14 (11745864_x_at) / RFU NPB (11741838_a_at) / Fold change /veh NPB (11741838_a_at) / RFU TMPRSS6 (11731388_a_at) / Fold change /veh TMPRSS6 (11731388_a_at) / RFU KRTAP10-2 (11738614_at) / Fold change /veh KRTAP10-2 (11738614_at) / RFU ARHGAP8 /// PRR5-ARHGAP8 (11727945_x_at) / Fold change /veh ARHGAP8 /// PRR5-ARHGAP8 (11727945_x_at) / RFU KRTAP5-7 /// NADSYN1 (11734609_at) / Fold change /veh KRTAP5-7 /// NADSYN1 (11734609_at) / RFU RASL12 (11751679_a_at) / Fold change /veh RASL12 (11751679_a_at) / RFU CDKN2B (11736163_a_at) / Fold change /veh CDKN2B (11736163_a_at) / RFU PRF1 (11729649_at) / Fold change /veh PRF1 (11729649_at) / RFU, ZNF638 /// ZNF638-IT1 / Fold change vs veh, ZNF638 /// ZNF638-IT1 / RFU, PANK3 / Fold change vs veh, PANK3 / RFU, SH3YL1 / Fold change vs veh, SH3YL1 / RFU, ZEB2 / Fold change vs veh, ZEB2 / RFU, NRIP1 / Fold change vs veh, NRIP1 / RFU, PTTG1IP / Fold change vs veh, PTTG1IP / RFU, CAPN2 / Fold change vs veh, CAPN2 / RFU, MED14 / Fold change vs veh, MED14 / RFU, SNORA58 / Fold change vs veh, SNORA58 / RFU, C1orf63 / Fold change vs veh, C1orf63 / RFU, LRRFIP1 / Fold change vs veh, LRRFIP1 / RFU, NDUFAF7 / Fold change vs veh, NDUFAF7 / RFU, SLC12A2 / Fold change vs veh, SLC12A2 / RFU, IBTK / Fold change vs veh, IBTK / RFU, ESF1 / Fold change vs veh, ESF1 / Fold change vs veh, TMEM50B / RFU, TAOK1 / Fold change vs veh, TAOK1 / RFU, ACBD3 / Fold change vs veh, ACBD3 / RFU, TMA16 / Fold change vs veh, TMA16 / RFU, RWDD3 / Fold change vs veh, RWDD3 / RFU, BCAT1 / Fold change vs veh, BCAT1 / RFU, EDEM3 / Fold change vs veh, EDEM3 / RFU, TMEM33 / Fold change vs veh, TMEM33 / RFU, WDR75 / Fold change vs veh, WDR75 / RFU, AHCTF1 / Fold change vs veh, AHCTF1 / RFU, TFRC / Fold change vs veh, TFRC / RFU, ZDHHC17 / Fold change vs veh, ZDHHC17 / RFU, NOM1 / Fold change vs veh, NOM1 / RFU, ARL8B / Fold change vs veh, ARL8B / RFU, ZBTB11 / Fold change vs veh, ZBTB11 / RFU, TAMM41 / Fold change vs veh, TAMM41 / RFU, KIAA1704 /// LOC100996395 / Fold change vs veh, KIAA1704 /// LOC100996395 / RFU, ING1 / Fold change vs veh, ING1 / RFU, TRMT61B / Fold change vs veh, TRMT61B / RFU, FUBP3 / Fold change vs veh, FUBP3 / RFU, TP53 / Fold change vs veh, TP53 / RFU, TNKS2 / Fold change vs veh, TNKS2 / RFU, ZFP14 / Fold change vs veh, ZFP14 / RFU, ACTR2 / Fold change vs veh, ACTR2 / RFU, PPP3R1 / Fold change vs veh, PPP3R1 / RFU, PIK3R1 / Fold change vs veh, PIK3R1 / RFU, HNRNPA1 / Fold change vs veh, HNRNPA1 / RFU, RNF170 / Fold change vs veh, RNF170 / RFU, ZNF28 / Fold change vs veh, ZNF28 / RFU, RNGTT / Fold change vs veh, RNGTT / RFU, OGT / Fold change vs veh, OGT / RFU, BRD1 / Fold change vs veh, BRD1 / RFU, MARS / Fold change vs veh, MARS / RFU, ZNF655 / Fold change vs veh, ZNF655 / RFU, FAHD1 / Fold change vs veh, FAHD1 / RFU, BDP1 / Fold change vs veh, BDP1 / RFU, LRRCC1 / Fold change vs veh, LRRCC1 / RFU, ARID1A / Fold change vs veh, ARID1A / RFU, ZNF146 / Fold change vs veh, ZNF146 / RFU, ZNF330 / Fold change vs veh, ZNF330 / RFU, GPN3 / Fold change vs veh, GPN3 / RFU, C9orf123 / Fold change vs veh, C9orf123 / RFU, N4BP2L2 / Fold change vs veh, N4BP2L2 / RFU, ARFIP1 / Fold change vs veh, ARFIP1 / RFU, FAM179B / Fold change vs veh, FAM179B / RFU, BCL10 / Fold change vs veh, BCL10 / RFU, UHRF1BP1L / Fold change vs veh, UHRF1BP1L / RFU, BET1 / Fold change vs veh, BET1 / RFU, CNOT2 / Fold change vs veh, CNOT2 / RFU, ZNF268 / Fold change vs veh, ZNF268 / Fold change vs veh, ZNF507 / RFU, DGCR2 / Fold change vs veh, DGCR2 / RFU, WDSUB1 / Fold change vs veh, WDSUB1 / Fold change vs veh, HSP90B1 /// MIR3652 / RFU, ADSS / Fold change vs veh, ADSS / RFU, GK / Fold change vs veh, GK / RFU, ZNF148 / Fold change vs veh, ZNF148 / RFU, TAF9 / Fold change vs veh, TAF9 / RFU, SLC1A5 / Fold change vs veh, SLC1A5 / RFU, SLMO2 / Fold change vs veh, SLMO2 / RFU, ABCC4 / Fold change vs veh, ABCC4 / RFU, LOC101060439 /// RAP1B / Fold change vs veh, LOC101060439 /// RAP1B / RFU, RFX7 / Fold change vs veh, RFX7 / RFU, GTPBP10 / Fold change vs veh, GTPBP10 / RFU, CNEP1R1 / Fold change vs veh, CNEP1R1 / RFU, BIVM-ERCC5 /// ERCC5 / Fold change vs veh, BIVM-ERCC5 /// ERCC5 / RFU, ILF3 / Fold change vs veh, ILF3 / RFU 11762660_at / Fold change /veh 11762660_at / RFU VCAN (11757783_s_at) / Fold change /veh VCAN (11757783_s_at) / RFU DDX43 (11728927_at) / Fold change /veh DDX43 (11728927_at) / RFU KRT8 (11758188_x_at) / Fold change /veh KRT8 (11758188_x_at) / RFU NKD1 (11759106_at) / Fold change /veh NKD1 (11759106_at) / RFU SRD5A1 (11742802_a_at) / Fold change /veh SRD5A1 (11742802_a_at) / RFU TPSAB1 /// TPSB2 (11721975_s_at) / Fold change /veh TPSAB1 /// TPSB2 (11721975_s_at) / RFU GSTM3 (11746129_a_at) / Fold change /veh GSTM3 (11746129_a_at) / RFU IL23R (11737362_x_at) / Fold change /veh IL23R (11737362_x_at) / RFU TMEM51 (11727254_a_at) / Fold change /veh TMEM51 (11727254_a_at) / RFU PIWIL2 (11732686_x_at) / Fold change /veh PIWIL2 (11732686_x_at) / RFU ORM1 (11744905_x_at) / Fold change /veh ORM1 (11744905_x_at) / RFU CCDC152 (11743942_at) / Fold change /veh CCDC152 (11743942_at) / RFU ECM1 (11717891_a_at) / Fold change /veh ECM1 (11717891_a_at) / RFU IL23R (11748794_a_at) / Fold change /veh IL23R (11748794_a_at) / RFU TNFAIP8L3 (11732012_x_at) / Fold change /veh TNFAIP8L3 (11732012_x_at) / RFU MBOAT4 (11741988_at) / Fold change /veh MBOAT4 (11741988_at) / RFU 11764193_at / Fold change /veh 11764193_at / RFU TMEM53 (11763286_at) / Fold change /veh TMEM53 (11763286_at) / RFU MAGEB2 (11727129_at) / Fold change /veh MAGEB2 (11727129_at) / RFU TMEM200A (11744735_a_at) / Fold change /veh TMEM200A (11744735_a_at) / RFU CCDC152 (11751479_a_at) / Fold change /veh CCDC152 (11751479_a_at) / RFU FAM211A (11726209_a_at) / Fold change /veh FAM211A (11726209_a_at) / RFU RGS16 (11746705_a_at) / Fold change /veh RGS16 (11746705_a_at) / RFU VCAN (11755009_s_at) / Fold change /veh VCAN (11755009_s_at) / RFU RHOB (11743442_s_at) / Fold change /veh RHOB (11743442_s_at) / RFU RGS16 (11720943_a_at) / Fold change /veh RGS16 (11720943_a_at) / RFU RGS16 (11720944_at) / Fold change /veh RGS16 (11720944_at) / RFU, VPS4B / Fold change vs veh, VPS4B / RFU, CREB1 / Fold change vs veh, CREB1 / RFU, DNAJC13 / Fold change vs veh, DNAJC13 / RFU, GNAQ / Fold change vs veh, GNAQ / RFU, CDK5R1 / Fold change vs veh, CDK5R1 / RFU, ZRANB3 / Fold change vs veh, ZRANB3 / RFU, CUL4A / Fold change vs veh, CUL4A / RFU, CCNY / Fold change vs veh, CCNY / RFU, UFL1 / Fold change vs veh, UFL1 / RFU, COG3 / Fold change vs veh, COG3 / RFU, DIAPH2 / Fold change vs veh, DIAPH2 / RFU, SKA2 / Fold change vs veh, SKA2 / RFU, AFF3 / Fold change vs veh, AFF3 / RFU, LMF1 / Fold change vs veh, LMF1 / RFU, IPO11 / Fold change vs veh, IPO11 / RFU, DFFB / Fold change vs veh, DFFB / RFU, FOXP1 / Fold change vs veh, FOXP1 / RFU, CARD8 / Fold change vs veh, CARD8 / RFU, STRN3 / Fold change vs veh, STRN3 / RFU, ADK / Fold change vs veh, ADK / RFU, RASSF2 / Fold change vs veh, RASSF2 / RFU, WIPF1 / Fold change vs veh, WIPF1 / RFU, LARP1B / Fold change vs veh, LARP1B / RFU, RASA1 / Fold change vs veh, RASA1 / RFU, RB1 / Fold change vs veh, RB1 / RFU, PPFIA1 / Fold change vs veh, PPFIA1 / RFU, MAT2A / Fold change vs veh, MAT2A / RFU, CCT5 / Fold change vs veh, CCT5 / RFU, WDR92 / Fold change vs veh, WDR92 / RFU, CUX1 / Fold change vs veh, CUX1 / RFU, TTC7A / Fold change vs veh, TTC7A / RFU, TMEM135 / Fold change vs veh, TMEM135 / RFU, DEPTOR / Fold change vs veh, DEPTOR / RFU, CPM / Fold change vs veh, CPM / RFU, DNAJB6 / Fold change vs veh, DNAJB6 / RFU, CACNA2D3 / Fold change vs veh, CACNA2D3 / RFU, DTX4 / Fold change vs veh, DTX4 / RFU, TFCP2 / Fold change vs veh, TFCP2 / RFU, GMCL1 /// GMCL1P1 / Fold change vs veh, GMCL1 /// GMCL1P1 / RFU, AEBP2 / Fold change vs veh, AEBP2 / RFU, SNHG1 /// SNORD22 /// SNORD25 /// SNORD26 /// SNORD27 /// SNORD28 /// SNORD29 /// SNORD31 / Fold change vs veh, SNHG1 /// SNORD22 /// SNORD25 /// SNORD26 /// SNORD27 /// SNORD28 /// SNORD29 /// SNORD31 / Fold change (Aza/veh), C12orf56 (ProbeSet 11735607_a_at) / Fold change (ACY-1035/veh), C12orf56 (ProbeSet 11735607_a_at) / Fold change (Aza/veh), FGFR1OP (ProbeSet 11751329_s_at) / Fold change (ACY-1035/veh), FGFR1OP (ProbeSet 11751329_s_at) / Fold change (Aza/veh), VPS36 (ProbeSet 11739960_a_at) / Fold change (ACY-1035/veh), VPS36 (ProbeSet 11739960_a_at) / RFU SYPL1 (11715823_x_at) / Fold change /veh SYPL1 (11715823_x_at) / RFU IGFBP7 (11715501_s_at) / Fold change /veh IGFBP7 (11715501_s_at) / RFU REEP3 (11722064_at) / Fold change /veh REEP3 (11722064_at) / RFU IGLL1 (11728026_x_at) / Fold change /veh IGLL1 (11728026_x_at): dose or concentration left out as unconfirmed", "settings": "MV-4-11 cells, 48 hours"}
{"molecule": "Nc1ncn([C@@H]2O[C@H](CO)[C@@H](O)[C@H]2O)c(=O)n1", "note": "[azacitidine]", "values": [{"measurement": "RFU REEP3 (11722064_at)", "result": 27.20, "unit": "RFU"}]}
